Test results published in US10213444B2, “Composition and method for treating bipolar disorder” (LAUREATE INSTITUTE FOR BRAIN RESEARCH, priority 2014, dated 2019).

Columns and labels:
[1] = tested on: individuals receiving lithium treatment (bipolar symptoms); settings: cited from earlier work
[2] = tested on: patients with major depressive disorder; experiment: Same trial, subset of patients with major depressive disorder (unipolar depression); assay type: in vivo, human; settings: subset with major depressive disorder (n=10)
Method: (§1) The above pharmaceutical compound comprising minocycline and acetylsalicylic acid was tested using a double-blind, placebo-controlled trial with a 2×2design. The study examined subjects with bipolar disorder during a current major depressive episode (“bipolar depression”). Most subjects were either partial responders to existing antidepressant and/or mood stabilizing treatments or were treatment resistant. The subjects were randomized to receive either (1) placebo-minocycline plus placebo-acetylsalicylic acid, or (2) active-minocycline (100 mg b.i.d.) plus placebo-acetylsalicylic acid, or (3) placebo-minocycline plus active-acetylsalicylic acid (81 mg b.i.d.), or (4) active-minocycline (100 mg b.i.d.) plus active-acetylsalicylic acid (81 mg b.i.d.) (FIG. 1). Clinical symptoms of depression and mania were measured using the Montgomery-Asberg Depression Rating Scale (MADRS) and the Young Mania Rating Scale (YMRS), respectively.
In the subset of patients with major depressive disorder (n=10), 75% responded to the combination of minocycline+ASA (3/4) compared to 50% response in the minocycline+placebo group (1/2), and 0% in the ASA+placebo group (0/3). The data document that the combination of minocycline and ASA has effectiveness for the treatment of additional forms of non-bipolar depression such as major depressive disorder and dysthymia. […]

[3] = administered orally; cited from earlier work
[4] = tested on: subjects with bipolar disorder during a current major depressive episode (bipolar depression); experiment: Double-blind, placebo-controlled 2×2 trial in bipolar depression (MADRS, YMRS); assay type: in vivo, human; settings: LOCF; for Percentage of female responders: female patients; for Percentage of female responders / Percentage of responders (BMI >30): >50% reduction in MADRS; for Percentage of responders (BMI >30): subset BMI >30; for Percentage of responders: total sample, response = greater than 50% reduction in MADRS baseline to final, 6 weeks, ASA 81 mg b.i.d., minocycline 100 mg b.i.d. p.o.
Method: as §1
For the data produced below, the treatment method for administering the combination of each composition, including the active-minocycline and active-acetylsalicylic acid, entailed the following steps: administer ASA 81 mg p.o b.i.d and minocycline 100 mg p.o b.i.d. As depicted in FIG. 1, each session number (total of 7) is encircled, with the timing between sessions indicated in weeks with a 2business day window on either side of visit target date to complete the visit. Session 1(far left) is the baseline and session 7(far right) is the study end. The study duration is 6weeks.
Of the 99patients who were randomized, 87started treatment and completed a sufficient number of sessions (at least 3weeks of treatment) to be included in the last-observation carried forward analysis (LOCF) shown below. For these 87subjects, 79completed the entire study. Eight subjects dropped-out early, all from the active treatment groups—4from minocycline+ASA, 3from ASA+placebo, and one from minocycline+placebo. Since existing anti-depressant medications generally begin to exert antidepressant effects within 3weeks, in this trial, data from patients with at least 3weeks of treatment were including in the LOCF analysis.
Response to medication/placebo was defined as a greater than 50% reduction in MADRS scores between the baseline and final assessment. Table 2provides results reflecting percentage of treatment responders by group, and relative risk reduction (RRR), absolute risk reduction (ARR) and, number needed to treat (NNT) for the combination ASA/minocycline treatment.

[5] = administered orally; cited from earlier work; remark: listed apart in the source

CC(=O)Oc1ccccc1C(=O)O [ASA, acetylsalicylic acid]
effect on medication events ([1]; high-dose aspirin or other anti-inflammatory classes added to lithium treatment): increase in medication events
less likely to have a medication event ([1]; low-dose (≤81 to 162 mg/day) aspirin added to lithium treatment): 17%
percent responded (MADRS response) [2]: 0%
brain to blood ratio [3]: 0.32
level within brain as percent of level within blood plasma [3]: 32%
Percentage of female responders [4]: 50%
Percentage of responders (BMI >30) [4]: 44%
Percentage of responders [4]: 56%

CN(C)c1ccc(O)c2c1C[C@H]1C[C@H]3[C@H](N(C)C)C(O)=C(C(N)=O)C(=O)[C@@]3(O)C(O)=C1C2=O [minocycline]
level within cerebrospinal fluid as percent of plasma concentrations [5]: 11-56%
percent responded (MADRS response) [2]: 50%
Percentage of female responders [4]: 55%
Percentage of responders (BMI >30) [4]: 38%
Percentage of responders [4]: 38%
